Read-outs that look alike come from different tables or passages of the source.
Key:
DENV-2 NS2B/NS3pro [1] = molecular target: T1, DENV-2 NS2B/NS3pro (Dengue virus type 2, UniProt P14340); assay: DENV-2 NS2B/NS3pro protease inhibition assay (fluorogenic Boc-GRR-MCA substrate); format: biochemical; conditions: for IC50: 3 μM protease, 25 μM substrate
T1 construct: pQE30.CF40.gly(T).NS3pro expression plasmid; 6x-His (N); glycine linker (gly(T)) joining CF40 to NS3pro (C); made in house; host or cells: Escherichia coli strain XL1-Blue
T1 sequence (P14340 1398-1437): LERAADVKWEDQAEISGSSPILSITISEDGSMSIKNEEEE
T1 sequence (P14340 1476-1653): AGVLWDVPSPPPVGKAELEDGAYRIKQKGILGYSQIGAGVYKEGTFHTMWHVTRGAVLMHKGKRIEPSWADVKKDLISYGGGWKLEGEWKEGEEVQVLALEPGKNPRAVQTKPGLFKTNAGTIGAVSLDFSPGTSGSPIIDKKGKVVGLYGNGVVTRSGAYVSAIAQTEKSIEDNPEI
Experimental: The DENV-2 NS2B/NS3pro expression was carried out according to the established method by Yusof et al., (2000) with minor modifications according to published articles. The plasmid encoding the NS2B/NS3 protease sequence from DENV-2 was transformed into Escherichia coli strain XL1-Blue transformed with pQE30.CF40.gly(T).NS3pro expression plasmid were grown in LB medium containing 10 μg/ml ampicillin at 37°C until the OD600 reached 0.6. First, the cells were incubated at 37°C, 200 rpm until OD600 reached ~0.6. One ml of isopropyl-β-D-thiogalactopyranoside (0.5 mM in LB medium) was added to the bacterial cells for 2 hours to induce protein expression. Expression of the recombinant protein was induced by the addition of […] IPTG and the culture was incubated for 2 hours.
The cells were harvested by centrifugation at 8000 rpm (Sorvall RC-5B Refrigerated Superspeed centrifuge) for 15 minutes at […]. The cell pellets were thawed (1 g) and resuspended in lysis buffer (5 mL) followed by mixing them using vortex until milky. For purification, cells were lysed by sonication conducting (6 times 15-second pulse, duty cycle 10%, output control no 3) using Ultrasonic Cell Disruptor, Branson Sonifier 450, Germany. The lysate was incubated on ice for 1 hour and then centrifuged at 8000 rpm for 1 hour at 4°C. The soluble 6x-His-NS2B/NS3protease in its native form was filtered ([…]), batch-bound to 2 x 2 ml Ni^2+-NTA (nickel-nitrilotriacetic acid) resin (pre-equilibrated with column buffer) and incubated overnight at 4°C. The resin was cleaned up from the unbound fraction by centrifugation and the resin with bound protein was collected and loaded into columns (Bio-Rad; 1 x 3 cm). The gradient technique columns were washed extensively with 3 x 15 ml of wash buffer and further eluted with 10 ml of elution buffer for each column while being monitored using Bio-Rad Bradford protein assay. The purified protein was then analysed with 12% SDS-PAGE, pooled and stored at -80°C for further use in the dengue protease activity and inhibition studies. The dengue protease activity assay was developed as previously described with a slight modification. Briefly, the assay system comprised of 200 mM Tris-HCl (pH 8.5) buffer, DENV-2 NS2B/NS3pro and Boc-GRR-MCA as the substrate. Protease optimum assay was executed to ascertain maximum protease activity at constant concentration of the substrate (25 μM). The protease concentrations were varied within 0–10 μM. The 7-Amino-4-methylcoumarin (AMC) produced was measured as fluorescence intensity at λexcitation of 340 nm and λemission of 440 nm by using ELISA modulus microplate reader.
The compounds were also checked for its requirement to pass the pan assay interference compounds (PAINS) (http://cbligand.org/PAINS/) before tested for their inhibition activities against DENV-2 NS2B/NS3pro at a range of concentrations (0 to 300 μg/mL). […] The concentration of the protease being used was 3 μM initially incubated with the compound for 10 minutes at 37°C with 200 rpm of rotation. Subsequently, 25 μM of the substrate was added and the incubation was further prolonged for 60 minutes. The fluorescence intensity at 340/ 440 nm was measured as the AMC byproduct was released upon the peptide substrate cleavage by the protease. The experiments were triplicated and Panduratin A was used as the positive control.

DENV-2 NS2B/NS3pro [2] = molecular target: T1, DENV-2 NS2B/NS3pro; parameters: method as in PMID 16621533; conditions: competitive inhibition; cited from earlier work
[3] = TG derivatives, Table 2, read-out: IC50
[4] = six newly designed compounds, Table 3, read-out: IC50

Row | Compound | IC50 (DENV-2 NS2B/NS3pro [1]; [3]) [µM] | IC50 (DENV-2 NS2B/NS3pro [1]; [4]) [µM] | other results
1 | COc1cccc(S(=O)(=O)Nc2nc(S)c3nc[nH]c3n2)c1 [Compound 4] | 68 |  | 
2 | COc1ccc(S(=O)(=O)Nc2nc(S)c3nc[nH]c3n2)cc1 [Compound 5] | 55 |  | 
3 | CCC(=O)Nc1nc(SC(=O)CC)c2nc[nH]c2n1 [Compound 16] |  | 97 | 
4 | CC(C)C(=O)Nc1nc(SC(=O)C(C)C)c2nc[nH]c2n1 [Compound 17] |  | 80 | 
5 | CCCCC(=O)Nc1nc(SC(=O)CCCC)c2nc[nH]c2n1 [Compound 18] |  | 0.38 | 
6 | CCCCC(=O)Nc1nc(SCc2ccccc2)c2nc[nH]c2n1 [Compound 19] |  | 54 | 
7 | CC(C)Cn1cnc2c(SCc3cccc4ccccc34)nc(N)nc21 [Compound 20] |  | 258 | 
8 | CCCCC(=O)Nc1nc(SCc2ccccc2)c2ncn(Cc3ccccc3)c2n1 [Compound 21] |  | 16 | 
9 | COc1cc(O)c(C(=O)[C@@H]2[C@H](CC=C(C)C)C(C)=CC[C@H]2c2ccccc2)c(O)c1 [Panduratin A, panduratin A, reference compound] |  |  | IC50 (DENV-2 NS2B/NS3pro [1]; NCI diversity set hits, read-out: Experimental IC50): 56 µM; Ki (DENV-2 NS2B/NS3pro [2]): 25 µM
10 | Nc1nc2nc[nH]c2c(=S)[nH]1 [TG, thioguanine] | 753 |  | inhibition at 200 µg/mL (DENV-2 NS2B/NS3pro [1]): 56%
